# Test results reported in patent US20110281917A1, “Substituted Benzimidazoles for the Treatment of Astrocytomas” (priority 2009, published 2011).
# Tests used:
# phospho-MEK = phospho-MEK ELISA in ST88 cells; type: cell-based
# Source text: (§1) Pathway inhibition and anti-proliferative activity of RAF265 in ST88 cells.
# ST88 cells = test: Proliferation of ST88 cells; type: cell-based
# Source text: as §1
# [1] = system: VEGF-CHO cells induced angiogenesis; test: Matrigel plug angiogenesis model with VEGF-CHO cells, hemoglobin by Drabkin's reagent; type: in vivo; conditions: mice, dosed days 1 and 4, plugs excised day 5
# Source text: Due to the inhibition of VEGFR-2, RAF265 also has anti-angiogenic activity which may also provide a therapeutic benefit in treating neurofibromas. To confirm that RAF265 inhibits the growth of new blood vessels (i.e., angiogenesis) in vivo, mice were implanted with Matrigel® containing Chinese hamster ovary cells (CHO) overexpressing VEGF and then treated mice with a dose range of RAF265 or a vehicle control (days 1 and 4). In this model, VEGF expressed from the CHO cells induces angiogenesis within the Matrigel® plug. Plugs are excised on day 5 and assayed for hemoglobin using Drabkin's reagent, as a measure of the degree of angiogenesis.
# phospho-ERK = phospho-ERK ELISA in ST88 cells; type: cell-based
# Source text: as §1
compound,measurement,setting,value
Cn1c(Nc2ccc(C(F)(F)F)cc2)nc2cc(Oc3ccnc(-c4ncc(C(F)(F)F)[nH]4)c3)ccc21 [Compound of Example 1],EC50,phospho-MEK,150 nM
same,EC50,ST88 cells,207 nM
same,dose of maximal suppression of hemoglobin content,[1],50 mg/kg
same,hemoglobin content of Matrigel plug,[1],dose-dependent decrease in hemoglobin content
same,EC50,phospho-ERK,185 nM
